Reference: US20240018146A1, “COMPOSITIONS AND METHODS OF USING THE SAME FOR TREATMENT OF NEURODEGENERATIVE AND MITOCHONDRIAL DISEASE” (MITOKININ, INC., priority 2020, published 2024)
Entries after “also recorded” stand apart in the source; their conditions may differ. Read-outs that look alike come from different tables or passages of the source.

Assays:
[1] = Inspection of crystallization and round cells; type: physicochemical; design: key: 1=yes crystals; 0=no crystals
Experimental: 5. Inspection of Crystallization and Round Cells
Briefly, the Hela MKYP (Mito-Keima/YFP-Parkin) cells were seeded at 10K cells/well. EP/MTK compounds were added at seeding (cells were still in suspension). The cells were incubated with the EP/MTK compounds for 16 hours, then 1 μM FCCP/oligomycin was added for 6 hours. Prior to harvesting, cells were scored by eye under 20× magnification for the presence or absence of crystalline or aggregated compound, or round cells.

HeLa MKYP cells [2] = assay: Human mitophagy assay (HeLa mKeima assay, FACS); type: cell-based; conditions: for percentage of cells undergoing mitophagy: HeLa cells expressing mtKeima, FCCP and Oligomycin, FACS, FIG. 28; for EC50: Homo sapiens, HeLa
Outline: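 Mitophagy, read by FACS as the share of cells showing the lysosomal mtKeima emission shift, followed 6 h of 1 uM FCCP/oligomycin stimulation. Before that, HeLa MKYP cells spent 16 h with compound over a concentration range.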

pS129 α-syn = assay: Preformed fibril (PFF) model in primary neuron culture, pS129 α-syn; type: cell-based
Experimental: 4. Preformed Fibril Model
(§1) Mouse and human alpha-synuclein monomers have been sourced commercially, then pre-formed fibrils have been generated as per the detailed protocol provided by the MJFF. For in vitro experiments primary hippocampal neurons isolated from P0 pups were grown for 7 days after which PFFs at 5 ug/ml were introduced Pre-formed fibrils will be introduced via stereotactic injection into the striatum of wt (C57BL/6J, Jax #000664) and transgenic A53T mice (B6;C3-Tg(Prnp-SNCA*A53T)83Vle/J, Jax #004479). Cohorts of drug-treated (oral gavage) and untreated animals will then be allowed to age for up to 6 months, at which point they will be sacrificed and perfused. Brains will be removed and fixed, then sectioned for analysis. We anticipate that untreated A53T animals will show significant spreading of aggregated alpha-synuclein pathology and pS129 staining, as well as some possible neurodegeneration; wt animals are also expected to show pS129 synuclein staining and synuclein aggregation, albeit less than that seen in the A53T background.

HeLa MKYP cells [3] = assay: Cell death measured by DAPI staining, with 1 μM FCCP/oligomycin or no toxin (no FO); type: cell-based
Outline: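 Cell death was read by DAPI staining after 6–6.5 h compound exposure in HeLa MKYP cells, either with 1 μM FCCP/oligomycin or without toxin. H2O2 served as the cell-death control.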

Parkin = Parkin recruitment to mitochondria (HeLa cells expressing YFP-tagged Parkin, longitudinal imaging); type: cell-based, human; conditions: FCCP and Oligomycin, cells with Parkin recruited at 60 minutes, FIG. 29
Experimental: HeLa cells expressing a YFP-tagged Parkin were treated with […] of FCCP and Oligomycin followed by the specified dose of compound, then analyzed by longitudinal imaging. Percentage of cells with Parkin recruited to mitochondria at 60 minutes is shown.

Gdf15, Tnfrsf12a = assay: Cisplatin challenge, kidney expression of mitochondrial-stress related genes (quantitative PCR); type: in vivo, mice (C57Bl/6); conditions: 10 mg/kg cisplatin i.p., oral gavage QD for three days
Experimental: (§2) Mice were provided at least one week of acclimation to the animal facility and group housed. Mice were injected intraperitoneally with 1 mg/ml cisplatin solution (BluePoint Labs) or 10 ml/kg sterile-filtered saline using 29G insulin syringes. Mice were weighed and administered vehicle, 35985 or 40180 by oral gavage per the dosing regimens noted in the figures. Mice were monitored for excessive weight loss and euthanized if moribund.
(§3) 35985 and 40180 are formulated at ten-fold the dosing concentration in NMP (N-methylpyrrolidone) followed by dilution with solutol-15 and water for a final vehicle concentration of 10% NMP/10% solutol-15/80% water.
RNA was isolated from kidney samples using Rneasy Mini kit (Qiagen) according to its product manual. RNA concentration was measured using NanoDrop™ 2000/2000c Spectrophotometers (Thermo Scientific). 50 ng of RNA for each sample was used to generate cDNA. cDNA was synthesized using High-Capacity RNA-to-cDNA™ Kit (Thermo Scientific) according to its product manual. Quantitative PCR was performed using Power SYBR™ Green PCR Master Mix (Applied Biosystems) according to its product manual. The following primers were used to analyze gene expression levels in the kidney: […]
All gene expression levels were normalized to expression levels of beta-actin using ΔΔCt and expressed as fold change relative to cisplatin vehicle treated mice. […]

pathologic (pS129) α-syn = assay: In vivo α-syn (PFF) model, pathologic pS129 α-syn in striatum; design: species or system mice; conditions: oral BID dosing at 50, 25, 12.5, and 6.25 mg/kg
Experimental: FIG. 9A and FIG. 9B show representative in vivo data of EP-0040180 in an α-syn (PFF) model.
as §1

cleaved caspase-3 = assay: Cleaved caspase-3 levels in primary neuron culture; type: cell-based; conditions: compared with toxins
[4] = Mitotoxicity / Mitotox safety margin (therapeutic window); type: cell-based
KIM-1 = assay: Cisplatin challenge, kidney injury marker (KIM-1) in urine; type: in vivo, mice (C57Bl/6); conditions: 10 mg/kg cisplatin i.p., oral gavage QD, day 3 post-challenge
Experimental: as §2, §3
Urine was collected from scruffed mice (serial collection) or directly from bladder using insulin syringe during harvest (terminal collection). KIM-1 was measured in mouse urine using R&D System's Mouse TIM-1/KIM-1/HAVCR DuoSet ELISA following manufacturer's published protocol.
Referring to FIG. 36, mice (C57Bl/6) were challenged with a single intraperitoneal dose of 10 mg/kg cisplatin or saline and dosed by oral gavage once per day (QD) with 40180.

FC(F)(F)c1cc2c(NC3CCCc4ccccc43)ncnc2[nH]1 (single isomer, unassigned) [EP-0035985]
visual inspection of crystallization ([1]; 0.1 μM compound): 0 | visual inspection of crystallization ([1]; 0.3 μM compound): 0 | visual inspection of crystallization ([1]; 0.9 μM compound): 0 | visual inspection of crystallization ([1]; 2.8 μM compound): 0 | visual inspection of crystallization ([1]; 8.3 μM compound): 0 | visual inspection of crystallization ([1]; 25.0 μM compound, HeLa MKYP culture, 20× magnification): 0 | E102 max mitophagy, fold over DMSO (HeLa MKYP cells [2]; 1 μM FCCP/oligomycin): 4.43 fold over DMSO | percentage of cells undergoing mitophagy (HeLa MKYP cells [2]): induce mitophagy in a dose dependent manner; also recorded: dose responsive increase in the percentage of cells undergoing mitophagy | EC50 (HeLa MKYP cells [2]; mitophagy, 1 μM FCCP/oligomycin, read-out: E100 EC50): 330 nM | E101 lowest effective dose (HeLa MKYP cells [2]; mitophagy, 1 μM FCCP/oligomycin): 0.31 µM | pathological α-synuclein levels in primary neurons (pS129 α-syn; FIG. 8A-C): reduce pathological α-synuclein levels | E105 death at 8.3 μM (no FO) (HeLa MKYP cells [3]; 8.3 μM compound, no FO): 2.54 | E104 death at 25 μM (no FO) (HeLa MKYP cells [3]; 25 μM compound, no FO): 3.01 | E103 max death with 1 μM FO (HeLa MKYP cells [3]; with 1 μM FO): 8.14 | Parkin recruitment to mitochondria (Parkin): accelerate recruitment of Parkin to mitochondria; also recorded: dose responsive increase in the rate of Parkin recruitment to mitochondria

c1ccc2c(c1)OC[C@H](N1CCOCC1)[C@H]2Nc1ncnc2[nH]c(C3CC3)cc12 (single isomer, unassigned) [EP-0040180]
expression of mitochondrial-stress related genes Gdf15 and Tnfrsf12a in kidney (Gdf15, Tnfrsf12a): reduced expression of these genes in a dose-responsive manner; also recorded: reduces expression of mitochondrial-stress related genes | pathologic (pS129) α-syn (250-12) from the striatum induced by PFF challenge (pathologic (pS129) α-syn): significantly reduces | pathologic (pS129) α-syn (monomer) from the striatum induced by PFF challenge (pathologic (pS129) α-syn): significantly reduces | cleaved caspase-3 levels (cleaved caspase-3): do not significantly alter | percentage of cells undergoing mitophagy (HeLa MKYP cells [2]): induce mitophagy in a dose dependent manner; also recorded: dose responsive increase in the percentage of cells undergoing mitophagy | EC50 (HeLa MKYP cells [2]; read-out: Mitophagy induction EC50): 260 nM | pS129 α-syn (250-12) in primary neuron culture (pS129 α-syn; increasing doses): reduces | pS129 α-syn (monomer) in primary neuron culture (pS129 α-syn; increasing doses): reduces | pS129 α-syn in primary neuron culture (pS129 α-syn; increasing doses): reduces | Mito-Safety Index (highest safe dose/EC50) ([4]; highest safe dose/EC50): 97.54 | Highest safe dose (μM) (mitotox or cytotox) ([4]; mitotox or cytotox): 25.0 µM | KIM-1 (kidney-injury marker 1), urine (KIM-1): dose-dependent rescue of KIM-1; also recorded: reduces KIM-1 | Highest safe dose (cytotoxicity; no FO; safe means DAPI+ <20%) (HeLa MKYP cells [3]; no FO, safe means DAPI+ <20%): 25.0 µM | Max % death with 1 μM FO (HeLa MKYP cells [3]; with 1 μM FO): 10.4% | Parkin recruitment to mitochondria (Parkin): accelerate recruitment of Parkin to mitochondria; also recorded: dose responsive increase in the rate of Parkin recruitment to mitochondria
